Data from PubChem BioAssay AID1919017 (Molecular Pharmacology Branch, DTP, NCI, 2023).
Values joined by “and” are separate entries in the source; they are usually repeats but may differ in a detail not shown here. Identical values can stand only once.

System: SW1271 complex spheroids with HUVEC/MSC, growth, % test/control
Assay: Anticancer human tumor SW1271 cell line growth inhibition [AhR];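 also: spheroids exposed to agents for 7 days before readout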
Details: for IC50: curve of first compound; for viability, T/C: stronger effect = lower value
Summary of the method: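 Spheroids combined tumor cells with HUVEC endothelial cells and human MSCs as stroma. AhR antagonists were paired with standard or investigational drugs, each dosed in half-log steps down from near clinical Cmax, or from 10 microM where Cmax was unknown.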

[1] = second compound 0.1 µM, first compound 0.0316 µM
[2] = second compound 0.1 µM, first compound 0.1 µM
[3] = second compound 0.1 µM, first compound 0.316 µM
[4] = second compound 0.1 µM, first compound 1 µM
[5] = second compound 0.1 µM, first compound 3.16 µM
[6] = second compound 0.1 µM, first compound 10 µM
[7] = second compound 0.316 µM, first compound 0.0316 µM
[8] = second compound 0.316 µM, first compound 0.1 µM
[9] = second compound 0.316 µM, first compound 0.316 µM
[10] = second compound 0.316 µM, first compound 1 µM
[11] = second compound 0.316 µM, first compound 3.16 µM
[12] = second compound 0.316 µM, first compound 10 µM
[13] = second compound 1 µM, first compound 0.0316 µM
[14] = second compound 1 µM, first compound 0.1 µM
[15] = second compound 1 µM, first compound 0.316 µM
[16] = second compound 1 µM, first compound 1 µM
[17] = second compound 1 µM, first compound 3.16 µM
[18] = second compound 1 µM, first compound 10 µM
[19] = second compound 3.16 µM, first compound 0.0316 µM
[20] = second compound 3.16 µM, first compound 0.1 µM
[21] = second compound 3.16 µM, first compound 0.316 µM
[22] = second compound 3.16 µM, first compound 1 µM
[23] = second compound 3.16 µM, first compound 3.16 µM
[24] = second compound 3.16 µM, first compound 10 µM
[25] = second compound 10 µM, first compound 0.0316 µM
[26] = second compound 10 µM, first compound 0.1 µM
[27] = second compound 10 µM, first compound 0.316 µM
[28] = second compound 10 µM, first compound 1 µM
[29] = second compound 10 µM, first compound 3.16 µM
[30] = second compound 10 µM, first compound 10 µM

Nc1ncn(C2CC(O)C(CO)S2)c(=O)n1 (stereo unspecified) + CC(CO)NC(=O)c1cc(-c2ccc(Cl)cc2)nn(-c2cnn(C)c2)c1=O
IC50 (second compound 0.1 µM): > 300 nM | IC50 (second compound 0.316 µM): > 300 nM | IC50 (second compound 1 µM): > 300 nM | IC50 (second compound 3.16 µM): > 300 nM | IC50 (second compound 10 µM): > 300 nM | viability, T/C (second compound 0.1 µM, first compound 0.000949 µM): 110% | viability, T/C (second compound 0.1 µM, first compound 0.003 µM): 98.1% | viability, T/C (second compound 0.1 µM, first compound 0.00949 µM): 107% | viability, T/C (second compound 0.1 µM, first compound 0.03 µM): 102% | viability, T/C (second compound 0.1 µM, first compound 0.0949 µM): 83.4% | viability, T/C (second compound 0.1 µM, first compound 0.3 µM): 87.3% | viability, T/C (second compound 0.316 µM, first compound 0.000949 µM): 103% | viability, T/C (second compound 0.316 µM, first compound 0.003 µM): 87% | viability, T/C (second compound 0.316 µM, first compound 0.00949 µM): 116% | viability, T/C (second compound 0.316 µM, first compound 0.03 µM): 113% | viability, T/C (second compound 0.316 µM, first compound 0.0949 µM): 74% | viability, T/C (second compound 0.316 µM, first compound 0.3 µM): 68.9% | viability, T/C (second compound 1 µM, first compound 0.000949 µM): 93.4% | viability, T/C (second compound 1 µM, first compound 0.003 µM): 77.5% | viability, T/C (second compound 1 µM, first compound 0.00949 µM): 92% | viability, T/C (second compound 1 µM, first compound 0.03 µM): 96% | viability, T/C (second compound 1 µM, first compound 0.0949 µM): 99.2% | viability, T/C (second compound 1 µM, first compound 0.3 µM): 80.4% | viability, T/C (second compound 3.16 µM, first compound 0.000949 µM): 93% | viability, T/C (second compound 3.16 µM, first compound 0.003 µM): 76.5% | viability, T/C (second compound 3.16 µM, first compound 0.00949 µM): 83.5% | viability, T/C (second compound 3.16 µM, first compound 0.03 µM): 82% | viability, T/C (second compound 3.16 µM, first compound 0.0949 µM): 84.8% | viability, T/C (second compound 3.16 µM, first compound 0.3 µM): 68.1% | viability, T/C (second compound 10 µM, first compound 0.000949 µM): 87.3% | viability, T/C (second compound 10 µM, first compound 0.003 µM): 78.1% | viability, T/C (second compound 10 µM, first compound 0.00949 µM): 80.9% | viability, T/C (second compound 10 µM, first compound 0.03 µM): 77.4% | viability, T/C (second compound 10 µM, first compound 0.0949 µM): 84.2% | viability, T/C (second compound 10 µM, first compound 0.3 µM): 68%

COc1cc(C2c3cc4c(cc3C(OC3OC5COC(C)OC5C(O)C3O)C3COC(=O)C23)OCO4)cc(OC)c1O (stereo unspecified) + Cc1cncc(-c2nc(NCCc3c[nH]c4ccccc34)c3ncn(C(C)C)c3n2)c1
IC50 (second compound 0.1 µM): > 10000 nM | IC50 (second compound 0.316 µM): > 10000 nM | IC50 (second compound 1 µM): > 10000 nM | IC50 (second compound 3.16 µM): > 10000 nM | IC50 (second compound 10 µM): < 31.6 nM | viability, T/C [1]: 81.6% | viability, T/C [2]: 88.5% | viability, T/C [3]: 68.1% | viability, T/C [4]: 60.7% | viability, T/C [5]: 63.6% | viability, T/C [6]: 65.3% | viability, T/C [7]: 86.1% | viability, T/C [8]: 86.3% | viability, T/C [9]: 67.4% | viability, T/C [10]: 53.8% | viability, T/C [11]: 66.1% | viability, T/C [12]: 53.4% | viability, T/C [13]: 96.2% | viability, T/C [14]: 80.1% | viability, T/C [15]: 79.2% | viability, T/C [16]: 80.9% | viability, T/C [17]: 55.9% | viability, T/C [18]: 72% | viability, T/C [19]: 89.8% | viability, T/C [20]: 99.2% | viability, T/C [21]: 112% | viability, T/C [22]: 76.2% | viability, T/C [23]: 72.4% | viability, T/C [24]: 70.6% | viability, T/C [25]: 41.5% | viability, T/C [26]: 39.6% | viability, T/C [27]: 41% | viability, T/C [28]: 35.4% | viability, T/C [29]: 32.6% | viability, T/C [30]: 29.1%

COc1cccc2c1C(=O)c1c(O)c3c(c(O)c1C2=O)CC(O)(C(=O)CO)CC3OC1CC(N)C(O)C(C)O1 (stereo unspecified) + Cc1cncc(-c2nc(NCCc3c[nH]c4ccccc34)c3ncn(C(C)C)c3n2)c1
IC50 (second compound 0.1 µM): 332 nM | IC50 (second compound 0.316 µM): 280 nM | IC50 (second compound 1 µM): 380 nM | IC50 (second compound 3.16 µM): 258 nM | IC50 (second compound 10 µM): < 31.6 nM | viability, T/C [1]: 74% | viability, T/C [2]: 79.5% | viability, T/C [3]: 51.9% | viability, T/C [4]: 6.7% | viability, T/C [5]: 3.78% | viability, T/C [6]: 5.75% | viability, T/C [7]: 81.5% | viability, T/C [8]: 72.4% | viability, T/C [9]: 47.1% | viability, T/C [10]: 2.96% | viability, T/C [11]: 3.17% | viability, T/C [12]: 6.88% | viability, T/C [13]: 89.5% | viability, T/C [14]: 89% | viability, T/C [15]: 58.8% | viability, T/C [16]: 1.94% | viability, T/C [17]: 4.32% | viability, T/C [18]: 4.87% | viability, T/C [19]: 95% | viability, T/C [20]: 77.8% | viability, T/C [21]: 46.4% | viability, T/C [22]: 1.86% | viability, T/C [23]: 5.28% | viability, T/C [24]: 7.13% | viability, T/C [25]: 48% | viability, T/C [26]: 38.4% | viability, T/C [27]: 24.3% | viability, T/C [28]: 3.36% | viability, T/C [29]: 9.24% | viability, T/C [30]: 7.74%

COc1cc(Nc2ncc3c(n2)-c2ccc(Cl)cc2C(c2c(F)cccc2OC)=NC3)ccc1C(=O)O + CC(CO)NC(=O)c1cc(-c2ccc(Cl)cc2)nn(-c2cnn(C)c2)c1=O
IC50 (second compound 0.1 µM): 6120 nM | IC50 (second compound 0.316 µM): > 10000 nM | IC50 (second compound 1 µM): > 10000 nM | IC50 (second compound 3.16 µM): > 10000 nM | IC50 (second compound 10 µM): 3590 nM | viability, T/C [1]: 77.5% | viability, T/C [2]: 73.2% | viability, T/C [3]: 82.6% | viability, T/C [4]: 79.4% | viability, T/C [5]: 58.1% | viability, T/C [6]: 44% | viability, T/C [7]: 61.6% | viability, T/C [8]: 58% | viability, T/C [9]: 76.6% | viability, T/C [10]: 66% | viability, T/C [11]: 52.5% | viability, T/C [12]: 44.5% | viability, T/C [13]: 59.7% | viability, T/C [14]: 67.1% | viability, T/C [15]: 72.7% | viability, T/C [16]: 73.8% | viability, T/C [17]: 71.5% | viability, T/C [18]: 47.4% | viability, T/C [19]: 55.7% | viability, T/C [20]: 55.4% | viability, T/C [21]: 60.3% | viability, T/C [22]: 61.6% | viability, T/C [23]: 56.9% | viability, T/C [24]: 41.8% | viability, T/C [25]: 66.6% | viability, T/C [26]: 58.7% | viability, T/C [27]: 70.2% | viability, T/C [28]: 54.4% | viability, T/C [29]: 52.2% | viability, T/C [30]: 38.9%

COc1cc(C2c3cc4c(cc3C(OC3OC5COC(C)OC5C(O)C3O)C3COC(=O)C23)OCO4)cc(OC)c1O (stereo unspecified)
viability, T/C (compound 0.0316 µM): 81.3% and 81.6% and 96.4% | viability, T/C (compound 0.1 µM): 82.5% and 92.6% and 64.2% | viability, T/C (compound 0.316 µM): 63.9% and 54.3% and 41.1% | viability, T/C (compound 1 µM): 61.9% and 51% and 46.1% | viability, T/C (compound 3.16 µM): 60.1% and 72.8% and 44.8% | viability, T/C (compound 10 µM): 50.8% and 45.9% and 39.2%
